Each block holds one molecule with its values, some of them ahead of it.
Target: T1, GhmMDH1 (Gossypium hirsutum, UniProt A0A1U8J4P3)
T1 construct: gene LOC107903665; N-terminus […]; (27-residue mitochondrial target signal)
Assay: NADH/NAD+ absorbance at […] nm, nonlinear regression
Format: biochemical
Conditions: 50 mM MOPS pH 7.5, 25 °C

T1 sequence (A0A1U8J4P3 entry or part of it): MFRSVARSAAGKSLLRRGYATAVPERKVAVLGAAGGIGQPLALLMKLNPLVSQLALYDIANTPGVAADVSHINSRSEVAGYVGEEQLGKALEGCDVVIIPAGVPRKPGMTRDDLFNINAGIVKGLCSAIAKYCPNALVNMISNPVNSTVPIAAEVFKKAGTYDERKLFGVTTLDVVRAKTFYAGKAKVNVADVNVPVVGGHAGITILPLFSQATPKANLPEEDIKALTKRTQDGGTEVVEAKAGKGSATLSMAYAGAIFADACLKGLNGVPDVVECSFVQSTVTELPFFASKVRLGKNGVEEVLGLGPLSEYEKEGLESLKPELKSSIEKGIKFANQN

Km (1.0 mM NAD+): 2910 ± 290 µM
SMILES: O=C(O)C[C@H](O)C(=O)O [Malate]

Km (0.5 mM OAA): 107 ± 19 µM
SMILES: NC(=O)C1=CN([C@@H]2O[C@H](COP(=O)(O)OP(=O)(O)OC[C@H]3O[C@@H](n4cnc5c(N)ncnc54)[C@H](O)[C@@H]3O)[C@@H](O)[C@H]2O)C=CC1 [NADH]

Km (50 mM L-malate): 766 ± 84 µM
SMILES: NC(=O)c1ccc[n+]([C@@H]2O[C@H](COP(=O)(O)OP(=O)(O)OC[C@H]3O[C@@H](n4cnc5c(N)ncnc54)[C@H](O)[C@@H]3O)[C@@H](O)[C@H]2O)c1 [NAD^+]

Km (0.2 mM NADH): 132 ± 25 µM
SMILES: O=C(O)CC(=O)C(=O)O [OAA]

Source: publication PMC4503954, “The mitochondrial malate dehydrogenase 1 gene GhmMDH1 is involved in plant and root growth under phosphorus deficiency conditions in cotton” (Scientific Reports, 2015)
